Tested on: platelets (platelet rich plasma)
Assay: In vitro thrombogenicity/platelet adhesion, dynamic method with I-125 labeled PRP
Assay type: cell-based, Human
Conditions: 10% loading in PLGA 80/20 coating on metal strips, 2 hours perfusion at 40 mL min^−1; FIG. 5
Experimental: Metal strips with coatings of PLGA 80/20 containing varying amounts of triflusal (4, 7 and 10 wt %) were tested for thrombogenicity/platelet adhesion using a dynamic method. Human blood was collected and anti-coagulated. Platelet rich plasma (PRP) was then prepared from the blood, and labeled with radioactive iodine, I-125. The test samples were exposed to this labeled PRP for 2 hours under perfusion at a flow rate of 40 mL min^−1. Radioscintigraphy was then used on the washed and rinsed metal-coated strips, to count the number of adhered platelets.

For `CC(=O)Oc1cc(C(F)(F)F)ccc1C(=O)O` [triflusal], the platelet adhesion was “effective at reducing platelet adhesion”.
